Columns and labels:
[1] = test system: Mpro Q192T, Q192S, Q192L, Q192A, Q192I, Q192P, Q192H, Q192V, Q192W, Q192C, and Q192F; type: biochemical, SARS-CoV-2
[2] = test system: rNsp5^S144A recombinant SARS-CoV-2; type: cell-based
[3] = test system: rNsp5^E166Q recombinant SARS-CoV-2; type: cell-based
[4] = test system: rNsp5^H172Q recombinant SARS-CoV-2; type: cell-based
[5] = test system: rNsp5^H172Y recombinant SARS-CoV-2; type: cell-based
[6] = test system: rNsp5^S144M recombinant SARS-CoV-2; type: cell-based
[7] = test system: Mpro M49I, M49T, M49L, and M49V; type: biochemical, SARS-CoV-2
[8] = test system: top nine high-frequency mutants at residue N142; type: biochemical, SARS-CoV-2
[9] = test system: eight Q189 mutants; type: biochemical, SARS-CoV-2
[10] = target: Mpro S144A; conditions: cited from earlier work
[11] = test system: Mpro H172Y; conditions: cited from earlier work
[12] = target: Mpro G15S, T21I, L89F, K90R, P108S, P132H, and L205V; conditions: cited from earlier work

SMILES | Cross-resistance (fold vs WT) [1] [fold] | EC50 [2] [nM] | EC50 fold increase compared to rNsp5^WT [2] [fold] | EC50 [3] [nM] | EC50 fold increase compared to rNsp5^WT [3] [fold] | EC50 [4] [nM] | EC50 fold increase compared to rNsp5^WT [4] [fold] | EC50 [5] [nM] | EC50 [6] [nM] | EC50 fold increase compared to rNsp5^WT [6] [fold] | change in IC50 vs WT [7] [fold] | change in IC50 vs WT [8] [fold] | change in IC50 vs WT [9] [fold] | Ki increase [10] [fold] | increase in Ki [11] [fold] | IC50 or Ki value shifts [12] [fold]
CC(C)C[C@H](NC(=O)OCc1ccccc1)C(=O)N[C@@H](CC1CCNC1=O)C(O)S(=O)(=O)[O-].[Na+] (stereo partly shown) [GC-376] | > 7.7 |  |  |  |  |  |  |  |  |  |  |  |  |  |  | 
CC(C)(C)[C@H](NC(=O)C(F)(F)F)C(=O)N1C[C@H]2[C@@H]([C@H]1C(=O)N[C@H](C#N)C[C@@H]1CCNC1=O)C2(C)C [nirmatrelvir] |  | 127 | 5.0 | 69.7 | 2.7 | 133 ± 2.86 | 5.2 | 378 ± 10.2 | 87.1 ± 3.06 | 3.4 | < 3 | < 3.5 | < 3.1 | 91.9 | 233 | < 2
